# Experimental data published in patent US20120053119A1, “THERAPEUTIC METHOD FOR INCREASING PANCREATIC BETA CELL MASS” (priority 2009, published 2012).
# Tests used:
# Format in all cases: cell-based
# INS-1 cells [1] = test: Real time RT-PCR of beta-catenin and cyclin D1 mRNA in INS-1 cells; conditions: SDF-1 4 hr, relative to vehicle-treated control
# Experimental: FIG. 9. […] Data are normalized by using the housekeeping gene GADPH as an internal control and represent means±S.D. of three independent experiments. Statistical significance is depicted as (p<0.01) when compared with control values.
# Gene expression profiling on focused microarrays INS-1 cells were untreated or treated with 10 nM SDF-1 for 4 hrs. Total RNA was isolated and Biotin-labeled complimentary RNAs were generated using the TrueLabeling-AMP Linear RNA Amplification Kit (SuperArray Bioscience Corp.) The Wnt-signaling pathway-focused microarray filters (118 probes) (SuperArray Bioscience Corp.) were hybridized with these biotin-labeled targets (5 microg/array at 60 C overnight. The filters were washed and subsequently incubated with alkaline phosphatase-conjugated streptavidin and CDPStar substrate. The Chemiluminescent images were captured using Kodak Digital Station 440 (Perkin Elmer). For quantification, the spot intensity was measured and normalized to the value of the housekeeping gene GAPDH. Fold-changes in gene expression levels were determined by comparisons of hybridization densities of SDF-1 treated versus untreated INS-1 cells. Real time RT-PCR was carried out by using the SYBR® Green QPCR kit (Stratagene). Briefly, INS-1 cells were treated with 10 nM SDF-1 or PBS vehicle control for 4 h. […]
# Wnt signaling [2] = test: Wnt signaling luciferase reporter assay (TOPflash/FOPflash) in INS-1 cells; conditions: dose response
# Experimental: Wnt signaling is indicated by the value of TOPflash luciferase activity divided by FOPflash activity. A. Time course of the TOPflash:FOPflash ratio of INS-1 cell treated with 1 nM SDF-1. B. Ratio of TOPflash to FOPflash activity in INS-1 cells treated with increasing doses of SDF-1. C. […] All values are relative to the value of the untreated INS-1 cells. Data are normalized for transfection efficiency by co-transfected beta-galactosidase and represent means±S.D. of three experiments.
# All values are relative to the first (leftmost) bar. Statistical significance is depicted as * (p<0.05) when compared with control values (leftmost bar). Data are normalized for transfection efficiency by co-transfected beta-galactosidase and represent means±S.D. of three experiments.
# Wnt Signaling Luciferase Reporter Assay (TOPflash) INS-1 cells were plated into 24-well dishes 24 hr before transfection with TOPflash or the mutant, control reporter, FOPflash (1 microg/well) using LipofectAMINE2000 (Invitrogen). Various concentrations of SDF-1 or AMD3100 were then added to the culture medium 24 h following transfection for the indicated period of time. In studies in which inhibitors were used, LY294002 (50 microM), PD98059 (10 microM) or SH-5 (10 nM) were added concomitantly with SDF-1. In studies in which wild-type (wt), dominant-negative (dn) or contitutively-active (ca) forms of kinase were used, dnTCF7L2, dnGSK3beta, caGSK3beta, dnAkt, or caAkt (0.5 microg/well) was cotransfected with TOPflash. Luciferase activity in transfected cells was determined with a luciferase assay kit (Promega).
# We examined SDF-1 induction of Wnt signaling using a Wnt signaling reporter assay (TOPflash/FOPflash). The TOPflash and FOPflash constructs contain the luciferase reporter either under the control of consensus TCF7L2-binding sites or mutated TCF7L2-binding sites, respectively. Luciferase activity was measured during 4 hr after addition of 1 nM SDF-1 (FIG. 3A).
# beta-catenin = test: Western immunoblot of total and active (unphosphorylated) beta-catenin in INS-1 cells
# Experimental: FIG. 5. Inhibition of TCF7L2 or beta-catenin suppresses SDF-1 induced TOPflash activity. A. Dominant-negative TCF7L2 inhibits both basal and SDF-1-induced TOPflash activity. B. SiRNAs to beta-catenin SiRNAs inhibit SDF-1-stimulated Wnt signaling in INS-1 cells. INS-1 Cells were transfected and preincubated with TOPflash and the combination of either siRNAs 1 and 2, or scrambled siRNA and then treated for 4 hrs with 1 nM SDF-1 or control vehicle. Data are normalized for transfection efficiency by co-transfected beta-galactosidase and represent means±S.D. of three experiments. C. SDF-1 stabilizes beta-catenin through GPCR coupled Galphai/o. INS-1 cell cultures were stimulated with SDF-1 for the indicated times. Immunoblot analyses with anti-beta-catenin or anti-unphosphorylated beta-catenin (active beta-catenin).
# Western Immunoblots Membrane immunoblots were prepared from extracts of INS-1 cells and were interrogated with antisera to beta-catenin: total protein (Santa Cruz), and active form with the mutated GSK-3 phosphorylation sites (UpState 8E7).
# The transcriptional activation of Wnt target genes requires the association of TCF7L2 with nuclear beta-catenin. Therefore, we investigated whether active TCF7L2 is necessary for SDF-1-induced Wnt signaling. […]
# Wnt signaling [3] = test: Wnt signaling reporter (beta-galactosidase) in isolated islets of TopGal mouse; conditions: SDF-1 1 nM, isolated TopGal mouse islets
# Description: A. Isolated islets express reporter-driven beta-galactosidase. The dark regions mark the expression of beta-galactosidase, an indicator of the activation of the Wnt signaling reporter LacZ transgene. […] B. Polymerase chain reaction showing changes in beta-galactosidase mRNA levels in islets shown in panel A.
# Isolated mouse pancreatic islets Mouse islets were isolated (Lacy PE (1994) Pancreatic islet cell transplant. Mt Sinai J. Med. 61:23-31.) from the pancreata of TopGal reporter mice transgenic for the LEF-LacZ Wnt signaling reporter (DasGupta R, Fuchs E (1999) Development. 1999 126:4557-4568.). Freshly isolated islets were treated for 4 hrs with SDF-1 with and without the addition of the Galphai/o inhibitor pertussis toxin (PTX) or the CXCR4 antagonist AMD3100. Betagalactosidase activity was determined by incubation of the islets with X-gal for 6 hrs.
# Polymerase chain reaction analyses of betagalactosidase mRNA levels in isolated mouse islets Islets from TopGal mice were harvested after treatments with SDF-1, SDF-1+AMD3100, and SDF-1+pertussis toxin. RNA was extracted and beta galactosidase mRNA levels were measured by PCR using a SYBR Green QPCR kit (Stratagene) with the primers as described in Liu Z, Habener J F 2008 Glucagon-like Peptide-1 Activation of TCF7L2-dependent Wnt Signaling Enhances Pancreatic Beta Cell Proliferation. […]
# alpha-TC-1 cells = test: BrdU incorporation cell proliferation assay in alpha-TC-1 cells; conditions: serum starved alpha-TC-1 cells, SDF-1 10 nM, 20 hrs
# Experimental: FIG. 16. BrdU incorporation cell proliferation assay. Serum starved alpha-TC-1 cells were treated with either PBS (Control) or SDF-1 (10 nM) for 20 hrs, and their proliferation rate was examined by a BrdU incorporation assay. Data represent means±S.D. of three experiments. Statistical significance is depicted as * (p<0.05) when compared with control values (left bar).
# INS-1 cells [4] = test: ATP-lite cell viability assay, serum deprivation, SDF-1 with AMD3100; conditions: serum-free medium, SDF-1 2 nM, day 6
# Experimental: ATP lite cell viability assay: INS-1 cells were plated in 96 well plates. SDF-1 (2 nM) and AMD3100 were added at day 0, 2, 4 and cell viability was measured at day 6 using relative light units (RLU) as compared to control. N=6.
# INS-1 cells were plated in 96 well plates in control medium (no serum) or a medium containing 2% serum. SDF-1 (2 nM) and SDF-1 (2 nM) along with various concentrations of AMD3100 (2 uM, 0.4 uM, 80 nM, 16 nM) were added to different cell groups incubated in serum-free medium at days 0, 2, 4, and cell viability was measured at day 6 using relative light units (RLU) as compared to control.
substance,measurement,setting,value
"SDF-1: small, secreted 70 amino acid peptide chemokine, SEQ ID NO: 1, ligand of CXCR4",beta-catenin mRNA expression,INS-1 cells [1],3 fold
same,cyclin D1 mRNA expression,INS-1 cells [1],2 fold
same,SDF-1 concentration giving maximum Wnt signaling response (TOPflash/FOPflash),Wnt signaling [2],0.4 nM
same,level of active beta-catenin (unphosphorylated on Ser-33 and Ser-37),beta-catenin; 30 min after SDF-1 treatment,increased
same,total beta-catenin,beta-catenin; after 24-48 hours of SDF-1 treatment,substantial increase
same,activation of Wnt signaling (beta-galactosidase) in TopGal islets,Wnt signaling [3],activates Wnt signaling
same,proliferation of alpha cells (BrdU incorporation),alpha-TC-1 cells,stimulates the proliferation
same,protection of cell viability in serum deprivation,INS-1 cells [4],protects INS-1 cells from dying
